Laboratory results as given in ChEMBL document CHEMBL1125905, “Synthesis, conformational properties, and antibody recognition of peptides containing beta-turn mimetics based on alpha-alkylproline derivatives” (J Med Chem, 1991).

Key:
[1] = Dissociation constant (Kd) for the equilibrium binding to the monoclonal antibodies DB19/25 which were raised in mice was determined; set-up: species or system Mus musculus
[2] = Dissociation constant (Kd) for the equilibrium binding to the monoclonal antibodies DB19/1 which were raised in mice was determined; set-up: species or system Mus musculus

Kd [1] | Kd [2] | Structure (SMILES)
18 nM | 180 nM | CC(=O)N[C@@H](Cc1ccc(O)cc1)C(=O)N1CCC[C@H]1C(=O)N[C@@H](Cc1ccc(O)cc1)C(=O)N[C@@H](CC(=O)O)C(=O)N[C@@H](C(=O)N1CCC[C@@H]1C(=O)N[C@H](CC(=O)O)C(=O)N[C@H](Cc1ccc(O)cc1)C(=O)N[C@H](C)C(=O)O)C(C)C
600 nM | 4200 nM | CC(=O)N[C@@H](Cc1ccc(O)cc1)C(=O)N(C)[C@@H](C)C(=O)N[C@@H](Cc1ccc(O)cc1)C(=O)N[C@@H](CC(=O)O)C(=O)N[C@@H](C(=O)N1CCC[C@@H]1C(=O)N[C@H](CC(=O)O)C(=O)N[C@H](Cc1ccc(O)cc1)C(=O)N[C@H](C)C(=O)O)C(C)C
38 nM | 88 nM | CC(=O)N[C@@H](Cc1ccc(O)cc1)C(=O)N1CCC[C@H]1C(=O)N[C@@H](Cc1ccc(O)cc1)C(=O)N[C@@H](CC(=O)O)C(=O)N[C@@H](C(=O)N(C)[C@@H](C)C(=O)N[C@H](CC(=O)O)C(=O)N[C@H](Cc1ccc(O)cc1)C(=O)N[C@H](C)C(=O)O)C(C)C
5.7 nM | 3.6 nM | CC(=O)N[C@@H](Cc1ccc(O)cc1)C(=O)N1CCC[C@@]1(C)C(=O)N[C@@H](Cc1ccc(O)cc1)C(=O)N[C@@H](CC(=O)O)C(=O)N[C@@H](C(=O)N1CCC[C@@H]1C(=O)N[C@H](CC(=O)O)C(=O)N[C@H](Cc1ccc(O)cc1)C(=O)N[C@H](C)C(=O)O)C(C)C
